Where a SMILES comes first, the peptide text is derived from it.
Legend:
[1] = Phage display selection and ELISA-type peptide binding to polystyrene
From the text: For example, a variety of different phage display libraries were screened for peptides that bind to a selected target substrate (e.g., a substrate selected to find a binding domain useful in the present invention). The substrate was either bound to or placed in (depending on the selected substrate) the wells of a 96 well microtiter plate. Nonspecific binding sites on the well surface of the polystyrene microtiter plate were blocked with a buffer containing 1% bovine serum albumin after overnight incubation at 4° C. The wells were then washed 5 times with a buffer containing phosphate buffered saline with Tween™ 20 (“PBS-T”). Each library was diluted in PBS-T and added at a concentration of 10^10 pfu/ml in a total volume of 100 μl. After 3 hour of incubation at room temperature with shaking at 50 rpm, unbound phage were removed by multiple washes with PBS-T. Bound phage were recovered by denaturation with 0.1 M glycine buffer, pH2.2. The eluted phage were neutralized with phosphate buffer, and then added to E. coli cells in growth media. The cell and phage-containing media was cultured by incubation overnight at 37° C. in a shaker at 200 rpm. Phage-containing supernatant was harvested from the culture after centrifuging the culture. […] To detect phage that specifically bind to the selected substrate, enzyme-linked immunosorbent (ELISA-type) assays were performed using an anti-phage antibody conjugated to a detector molecule, followed by the detection and quantitation of the amount of detector molecule bound in the assay.
(§1) Relative binding strengths of the peptides were determined by testing serial dilutions of the peptide for binding to the selected substrate (as compared to a substrate used as a negative control; i.e. a substrate other than the selected substrate). Plotting the absorbance observed across the concentration range for each peptide sequence yielded a binding curve and rough dissociation constant (“KD”) of the peptides to its target substrate. […]

[2] = Phage display selection and ELISA-type peptide binding to polyurethane
From the text: (§2) For example, a variety of different phage display libraries were screened for peptides that bind to a selected target substrate (e.g., a substrate selected to find a binding domain useful in the present invention). The substrate was either bound to or placed in (depending on the selected substrate) the wells of a 96 well microtiter plate. Nonspecific binding sites on the well surface of the polystyrene microtiter plate were blocked with a buffer containing 1% bovine serum albumin after overnight incubation at 4° C. The wells were then washed 5 times with a buffer containing phosphate buffered saline with Tween™ 20 (“PBS-T”). […] To detect phage that specifically bind to the selected substrate, enzyme-linked immunosorbent (ELISA-type) assays were performed using an anti-phage antibody conjugated to a detector molecule, followed by the detection and quantitation of the amount of detector molecule bound in the assay.
as §1

[3] = Phage display selection and ELISA-type peptide binding to teflon
From the text: as §2, §1

[4] = tested on: cells of endothelial cell lineage
Experimental: In this illustrative example, cells of endothelial cell lineage used as target cells for the selection and screening process were human adipose-derived stem cells (“ADAS cells”). […] Fibroblasts (16 Lu fibroblast cell line) were used as non-target cells in the selection and screening process.
These peptides were tested in a variety of assay formats for binding specificity against a panel of cells and cell lines to compare binding to cells of endothelial cell lineage (e.g., human umbilical vein endothelial cells, human coronary artery endothelial cells, porcine coronary artery endothelial cells, and human endothelial progenitor cells) versus binding to cells of an origin other than endothelial cell lineage (e.g., human artery smooth muscle cells, porcine artery smooth muscle cells, platelets, and other mammalian cell lines).

[5] = Peptide binding to titanium beads (phage selection, ELISA-type dilution series)
Experimental: As a specific illustrative example, titanium (in percent: Ti6Al4V) beads of approximately 5/32 of an inch diameter were washed with 70% ethanol, 40% nitric acid, distilled water, 70% ethanol, and acetone to remove any surface contaminants. One titanium bead was placed per well of 96-well polypropylene plate. Nonspecific binding sites on the titanium and the surface of the polypropylene were blocked with 1% bovine serum albumin (BSA) in PBS. The plate was incubated for 1 hour at room temperature with shaking at 50 rpm. The wells were then washed 5 times with 300 μl of PBS. Each library was diluted in PBS+1% BSA and was added at a concentration of 10^10 pfu/ml in a total volume of 250 μl. […]
as §1
As a specific example, titanium beads were blocked with 1% BSA in PBS for 30 minutes at room temperature. […] Beads were washed two times with PBS-T. PNPP (p-nitrophenyl phosphate) was used to develop the assay, and the absorbance was recorded at 405 nm. […]

FSYSVSYAHPEGL [SEQ ID NO:21]
binding specificity for polystyrene [1]: substantially retain binding specificity for polystyrene

SCYVNGHNSVWWVFWGVS (SCYVNGHNSVWVVVFWGVS) [SEQ ID NO:23]
binding specificity for polyurethane [2]: specifically binds to polyurethane

CIKYPFLYCCLLSLFLFS [SEQ ID NO:56]
binding specificity for teflon [3]: specifically bind to teflon

CC(C)C[C@H](NC(=O)[C@H](C)NC(=O)[C@H](C)NC(=O)[C@H](CO)NC(=O)[C@@H]1CCCN1C(=O)[C@H](CCCNC(=N)N)NC(=O)[C@H](CC(C)C)NC(=O)[C@H](CC(C)C)NC(=O)[C@H](CO)NC(=O)[C@@H](NC(=O)[C@H](Cc1c[nH]cn1)NC(=O)[C@H](CCC(N)=O)NC(=O)[C@H](CS)NC(=O)[C@H](CO)NC(=O)[C@H](CO)NC(=O)[C@@H](N)CO)C(C)C)C(=O)NCC(=O)N1CCC[C@H]1C(=O)N[C@@H](CC(=O)O)C(=O)N[C@@H](CC(N)=O)C(=O)N[C@@H](CS)C(=O)N[C@@H](CO)C(=O)N[C@@H](CCCNC(=N)N)C(=O)NCC(=O)N[C@@H](CO)C(=O)N[C@@H](CO)C(=O)NCC(=O)N[C@@H](CCCCN)C(=O)O [SEQ ID NO:96] (H-SSSCQHVSLLRPSAALGPDNCSRGSSGK-OH; N-terminus and C-terminus assumed)
EC50 [4]: < 10 µM

CWSRFRLFMLFCMFYLVS [SEQ ID NO:55]
binding specificity for teflon [3]: specifically bind to teflon

CC(C)C[C@H](NC(=O)[C@H](C)NC(=O)[C@H](C)NC(=O)[C@H](CO)NC(=O)[C@@H]1CCCN1C(=O)[C@H](CCCNC(=N)N)NC(=O)[C@H](CC(C)C)NC(=O)[C@H](CC(C)C)NC(=O)[C@H](CO)NC(=O)[C@@H](NC(=O)[C@H](Cc1c[nH]cn1)NC(=O)[C@H](CCC(N)=O)NC(=O)[C@H](CS)NC(=O)[C@H](CO)NC(=O)[C@H](CO)NC(=O)[C@@H](N)CO)C(C)C)C(=O)NCC(=O)N1CCC[C@H]1C(=O)N[C@@H](CC(=O)O)C(=O)N[C@@H](CC(N)=O)C(=O)N[C@@H](CS)C(=O)N[C@@H](CS)C(=O)N[C@@H](CO)C(=O)N[C@@H](CCCNC(=N)N)C(=O)NCC(=O)N[C@@H](CO)C(=O)N[C@@H](CO)C(=O)NCC(=O)N[C@@H](CCCCN)C(=O)O [SEQ ID NO:95] (H-SSSCQHVSLLRPSAALGPDNCCSRGSSGK-OH; N-terminus and C-terminus assumed)
EC50 [4]: < 10 µM

FFPSSWYSHLGVL [SEQ ID NO:18]
binding specificity for polystyrene [1]: substantially retain binding specificity for polystyrene

SDKSHKHWYSYESKYGGS [SEQ ID NO:74]
binding specificity for titanium [5]: substantially retained binding specificity
reduction in binding ([5]; as compared to SEQ ID NO:73 (two cysteines substituted by serine)): 10 fold

FFGFDVYDMSNAL [SEQ ID NO:19]
binding specificity for polystyrene [1]: substantially retain binding specificity for polystyrene
